The record followed here is PubChem BioAssay AID1259407 (Chemical Carcinogenesis Research Information System (CCRIS), 2018).

The structures appear in SMILES notation. Activity calls are given as the source filed them. The rule behind the calls is not given here.

The test system of this series is CCRIS mutagenicity, Ames/micronucleus/aberration tests. Kind of series: CCRIS mutagenicity studies.

Regarding `O=C=Nc1ccc(Cc2ccc(N=C=O)cc2)cc1`, the mutagenic call (Test System: AMES SALMONELLA TYPHIMURIUM, Strain/Indicator: TA98, Metabolic Activation: HAMSTER, LIVER, S-9, AROCLOR 1254 (10%), Method: PREINCUBATION) was “inactive; negative”; the mutagenic call (Test System: AMES SALMONELLA TYPHIMURIUM, Strain/Indicator: TA98, Metabolic Activation: NONE, Method: PREINCUBATION) is “inactive; negative”; the mutagenic call (Test System: AMES SALMONELLA TYPHIMURIUM, Strain/Indicator: TA98, Metabolic Activation: RAT, LIVER, S-9, AROCLOR 1254 (10%), Method: PREINCUBATION) is “inactive; negative”; the mutagenic call (Test System: AMES SALMONELLA TYPHIMURIUM, Strain/Indicator: TA98, Metabolic Activation: RAT, LIVER, S-9, KC 500, Method: PREINCUBATION) is “inactive; negative”; the mutagenic call (Test System: AMES SALMONELLA TYPHIMURIUM, Strain/Indicator: TA100, Metabolic Activation: HAMSTER, LIVER, S-9, AROCLOR 1254 (10%), Method: PREINCUBATION) is “inactive; negative”; the mutagenic call (Test System: AMES SALMONELLA TYPHIMURIUM, Strain/Indicator: TA100, Metabolic Activation: NONE, Method: PREINCUBATION) is “inactive; negative”. For the same molecule, the mutagenic call runs as follows: (Test System: AMES SALMONELLA TYPHIMURIUM, Strain/Indicator: TA100, Metabolic Activation: RAT, LIVER, S-9, AROCLOR 1254 (10%), Method: PREINCUBATION) “inactive; negative”; (Test System: AMES SALMONELLA TYPHIMURIUM, Strain/Indicator: TA100, Metabolic Activation: RAT, LIVER, S-9, KC 500, Method: PREINCUBATION) “active; positive”; (Test System: AMES SALMONELLA TYPHIMURIUM, Strain/Indicator: TA1535, Metabolic Activation: HAMSTER, LIVER, S-9, AROCLOR 1254 (10%), Method: PREINCUBATION) “inactive; negative”; (Test System: AMES SALMONELLA TYPHIMURIUM, Strain/Indicator: TA1535, Metabolic Activation: NONE, Method: PREINCUBATION) “inactive; negative”; (Test System: AMES SALMONELLA TYPHIMURIUM, Strain/Indicator: TA1535, Metabolic Activation: RAT, LIVER, S-9, AROCLOR 1254 (10%), Method: PREINCUBATION) “inactive; negative”; (Test System: AMES SALMONELLA TYPHIMURIUM, Strain/Indicator: TA1535, Metabolic Activation: RAT, LIVER, S-9, KC 500, Method: PREINCUBATION) “inactive; negative”. In addition, the mutagenic call runs as follows: (Test System: AMES SALMONELLA TYPHIMURIUM, Strain/Indicator: TA1537, Metabolic Activation: HAMSTER, LIVER, S-9, AROCLOR 1254 (10%), Method: PREINCUBATION) “inactive; negative”; (Test System: AMES SALMONELLA TYPHIMURIUM, Strain/Indicator: TA1537, Metabolic Activation: NONE, Method: PREINCUBATION) “inactive; negative”; (Test System: AMES SALMONELLA TYPHIMURIUM, Strain/Indicator: TA1537, Metabolic Activation: RAT, LIVER, S-9, AROCLOR 1254 (10%), Method: PREINCUBATION) “inactive; negative”; (Test System: AMES SALMONELLA TYPHIMURIUM, Strain/Indicator: TA1537, Metabolic Activation: RAT, LIVER, S-9, KC 500, Method: PREINCUBATION) “inactive; negative”; (Test System: AMES SALMONELLA TYPHIMURIUM, Strain/Indicator: TA1538, Metabolic Activation: NONE, Method: PREINCUBATION) “inactive; negative”; (Test System: AMES SALMONELLA TYPHIMURIUM, Strain/Indicator: TA1538, Metabolic Activation: RAT, LIVER, S-9, KC 500, Method: PREINCUBATION) “inactive; negative”. Further, the mutagenic call by setting is: (Test System: E. COLI, Strain/Indicator: WP2 UVRA, Metabolic Activation: NONE, Method: PREINCUBATION) “inactive; negative”; (Test System: E. COLI, Strain/Indicator: WP2 UVRA, Metabolic Activation: RAT, LIVER, S-9, KC 500, Method: PREINCUBATION) “inactive; negative”.
Regarding `Cc1ccc(-c2nc3ccccc3o2)cc1`, the mutagenic call reads like this: (Test System: AMES SALMONELLA TYPHIMURIUM, Strain/Indicator: TA98, Metabolic Activation: NONE, Method: STANDARD PLATE) “inactive; negative”; (Test System: AMES SALMONELLA TYPHIMURIUM, Strain/Indicator: TA98, Metabolic Activation: S-9, Method: STANDARD PLATE) “inactive; negative”.
For `Cc1ccc(N)cc1N=Nc1cc(N)ccc1C`, the mutagenic call is “inactive; negative” (Test System: AMES SALMONELLA TYPHIMURIUM, Strain/Indicator: TA98, Metabolic Activation: NONE, Method: SUSPENSION/PLATE); “active; positive” (Test System: AMES SALMONELLA TYPHIMURIUM, Strain/Indicator: TA98, Metabolic Activation: RAT, LIVER, S-9, PHENOBARBITAL AND 5,6-BENZOFLAVONE, Method: SUSPENSION/PLATE); “inactive; negative” (Test System: AMES SALMONELLA TYPHIMURIUM, Strain/Indicator: TA100, Metabolic Activation: NONE, Method: SUSPENSION/PLATE); “active; positive” (Test System: AMES SALMONELLA TYPHIMURIUM, Strain/Indicator: TA100, Metabolic Activation: RAT, LIVER, S-9, PHENOBARBITAL AND 5,6-BENZOFLAVONE, Method: SUSPENSION/PLATE).
